Columns and labels:
Balb/c mice [1] = assay: Production amount of antibody by ELISA after dermal administration of antigenic substance with immunoadjuvant (Test Example 1); assay type: in vivo
Balb/c mice [2] = assay: Measurement of IgG1/IgG2 ratio in blood samples as an index of Th2/Th1 balance (Test Example 2); assay type: in vivo; settings: for IgG1/IgG2 ratio (given as average of the absorbance): mouse, in vivo
Experimental: The blood sample collected on the 25th day from the start of the test was provided, and the IgG1/IgG2 ratio was measured as an index of Th2/Th1 balance.
Further, a blood sample obtained by inoculating only the antigenic substance by intraperitoneal administration instead of the dermal administration at the same time as in the administration schedule in Test Example 1 was used as a control blood sample for comparison.
The IgG1/IgG2 ratio was measured with a Mouse Monoclonal Antibody Isotyping Reagents kit (SIGMA).
Specifically, a mouse serum was diluted with PBS by a factor of 1000 to give a solution. The solution (100 μL) was added to wells in a plate and was incubated at 37° C. for one hr. Next, each well was washed three times with PBS, and 100 μL of isotyping specific reagents (reagents containing IgA, IgG1, IgG2a, and IgG2b), which had been diluted by a factor of 1000, were added to the wells followed by incubation at room temperature for 30 min. Each well was washed three times with PBST. A peroxidase labelled mouse IgG (manufactured by SIGMA) (100 μL), which had been diluted with PBST by a factor of 5000, was added to the wells, and the wells were allowed to stand at room temperature for one hr. The wells were then washed three times with PBST. Thereafter, ABTS was added as a chromophoric substrate, and incubation was carried out for 5 to 10 min. For each well, the absorbance was measured with Multiscan Ascent (manufactured by Thermo Labsystems, wave length 405 nm).

| Compound | average±standard error of the absorbance (amount of antibody in mouse serum by ELISA) (Balb/c mice [1]; mouse, in vivo) | IgG1/IgG2 ratio (given as average of the absorbance) (Balb/c mice [2]) | average±standard error of the absorbance (amount of antibody in mouse serum by ELISA) (Balb/c mice [1]; serum sample on the 25th day from start of test, dermal administration by tape preparation, serum diluted 1000-fold, wavelength 405 nm, n=4) | Th2/Th1 balance (type of immunity induced) (Balb/c mice [2]; from IgG1/IgG2 ratio, compared with antigenic substance only intraperitoneally or with cholera toxin) |
| --- | --- | --- | --- | --- |
| cholera toxin [reference compound] | 0.551±0.202 | 1.46 | – | – |
| Nc1ncnc2c1ncn2[C@@H]1O[C@H](COP(=O)(O)OP(=O)(O)OP(=O)(O)O)[C@@H](O)[C@H]1O [ATP, adenosine triphosphate] | – | 2.28 | 0.670±0.033 | Th2 cells are predominant |
